Key:
[1] = test system: soybeans; assay: Soybean seed treatment field trial, grain yield (multi-year, multi-location); type: in vivo; conditions: control 60.4
Method: (§1) Soybean seeds treated with penthiopyrad, fluopyram, a combination thereof, at indicated application rates, along with appropriate controls were grown in multiple field locations under a variety of pest pressures including sudden death syndrome (SDS).
(§2) For those evaluations shown herein, the Treatment value is greater than or less than CONTROL, and statistically significant at (P-value <0.10).

[2] = test system: Fusarium virguliforme (SDS); assay: Soybean seed treatment field trial, SDS score at stage R6; type: in vivo; conditions: 9 = no disease, control 6.1
Method: as §1
Level of tolerance to Fusarium virguliforme (SDS) in soybean varieties based on SDS score was measured in multiple locations across multiple years. SDS score was determined at or during the soybean developmental stage R6.
Scale for assigning tolerance to SDS scores:
Scale 9=clean, no disease
Scale 8=Up to 10% of plants showing mild symptoms (yellow, chlorotic spots)
Scale 7=Up to 20% plants showing mild symptoms
Scale 6=up to 30% plants showing medium symptoms (necrotic spots develop in the chlorotic areas; considered the lowest ‘acceptable’ score)
Scale 5=40% or more of plants showing medium symptoms
Scale 4=50% or more plants showing medium to heavy symptoms
3, 2, or 1=1/3, 2/3, or complete leaf drop, respectively.
as §2

Structure (SMILES) | Multi-year, Multi-loc Yield ([1]; fluopyram 0.075 mg ai/seed) [bu/acre] | Multi-year, Multi-loc Yield ([1]; fluopyram 0.15 mg ai/seed) [bu/acre] | SDS Score (1-9) ([2]; fluopyram 0.075 mg ai/seed) | SDS Score (1-9) ([2]; fluopyram 0.15 mg ai/seed) | Multi-year, Multi-loc Yield ([1]; penthiopyrad 0.25 mg ai/seed) [bu/acre] | SDS Score (1-9) ([2]; penthiopyrad 0.25 mg ai/seed)
O=C(NCCc1ncc(C(F)(F)F)cc1Cl)c1ccccc1C(F)(F)F [Fluopyram, N-{2-[3-Chloro-5-(trifluoromethyl)-2-pyridinyl]ethyl}-2-(trifluoromethyl)benzamide] | 62.2 | 62.5 | 6.8 | 7.2 |  | 
CC(C)CC(C)c1sccc1NC(=O)c1cn(C)nc1C(F)(F)F (stereo not drawn) [Penthiopyrad, N-[2-(1,3-dimethylbutyl)-3-thienyl]-1-methyl-3-(trifluoromethyl)-1H-pyrazole-4-carboxamide] |  |  |  |  | 62.6 | 6.7
